These results are taken from patent publication US9296723B2, “NAMPT inhibitors” (AbbVie Inc., priority 2012, dated 2016).

Structures are written as SMILES.

Experiment [1] addresses T1, NAMPT (Homo sapiens, UniProt P43490). As to the kind of experiment: Time-Resolved Fluorescence Resonance Energy Transfer (TR-FRET) Binding Assay of NAMPT. Conditions: 6.8 nM NAMPT, 200 nM probe, equilibrated 3 hours, no substrates. Put shortly:
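IC50s come from four-parameter logistic fits of control-normalized Em520/Em495 TR-FRET ratios (Ex 337 nm) against compound concentration. Before reading, enzyme, probe, antibody and compound equilibrated for 3 h at room temperature.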

The subject of the next experiment is PC3 cells. As to the kind of experiment: NAMPT Cell Proliferation Assay (Cell Titer Glo). It counts as cell-based. Conditions: Homo sapiens, PC-3, 120 h, incubated 5 days, cell viability. The gist of the method: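 Viability measured by Cell Titer Glo luminescence after 5-day exposure of attached PC3 cells to compound, dosed as 10-fold serial dilutions ([…]) in RPMI/10% FBS at 37 °C and 5% CO2. Percent inhibition fitted to sigmoidal dose-response curves for IC50.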
Background: In ATP-based viability assays light output follows the ATP content of the culture.

The target in experiment [2] is T1, NAMPT. The experiment is described as follows: TR-FRET Binding Assay of NAMPT with PRPP. Conditions: 2 nM NAMPT, 2 nM probe, 200 µM PRPP and 2.5 mM ATP, equilibrated 16 hours. Put shortly:
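Substrates present: PRPP at 200 µM and ATP at 2.5 mM, final, alongside 2 nM enzyme, 2 nM tracer and 1 nM terbium anti-His donor in 2% DMSO. A 16-hour equilibration preceded the time-resolved FRET read, allowing compounds to be enzymatically modified.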

T1 sequence (P43490 whole entry): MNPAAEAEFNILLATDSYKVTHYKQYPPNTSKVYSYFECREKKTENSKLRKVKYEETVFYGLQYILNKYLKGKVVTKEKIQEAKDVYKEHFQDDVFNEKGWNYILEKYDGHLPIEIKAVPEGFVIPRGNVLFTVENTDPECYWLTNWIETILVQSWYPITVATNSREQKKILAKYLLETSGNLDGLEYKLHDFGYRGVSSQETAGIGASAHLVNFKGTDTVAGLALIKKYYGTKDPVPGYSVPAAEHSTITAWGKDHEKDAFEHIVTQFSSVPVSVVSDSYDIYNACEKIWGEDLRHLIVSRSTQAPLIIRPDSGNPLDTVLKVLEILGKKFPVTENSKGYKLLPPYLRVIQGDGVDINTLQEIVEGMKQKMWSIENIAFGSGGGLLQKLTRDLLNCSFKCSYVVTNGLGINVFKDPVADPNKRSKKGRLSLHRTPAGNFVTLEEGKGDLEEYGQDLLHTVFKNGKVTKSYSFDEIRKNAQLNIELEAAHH

Take `O=C(Nc1ccc(C2CCN(CC3CCCC3)CC2)cc1)N1CC(c2cccnc2)C1` [Example 231, N-{4-[1-(cyclopentylmethyl)piperidin-4-yl]phenyl}-3-(pyridin-3-yl)azetidine-1-carboxamide]: the figures for the 50% inhibitory concentration (IC50) on NAMPT [1], in the experiment on PC3 cells and on NAMPT [2] were 421 nM, 361 nM and 0.225 nM, respectively.
For `CC(C)(C)CCN1CCC(c2ccc(NC(=O)N3CC(c4cccnc4)C3)cc2)CC1` [Example 233, N-{4-[1-(3,3-dimethylbutyl)piperidin-4-yl]phenyl}-3-(pyridin-3-yl)azetidine-1-carboxamide], the values for the IC50 on NAMPT [1], in the experiment with PC3 cells and at NAMPT [2] were 653 nM, 970 nM and 0.335 nM, respectively.
Turning to `CC(C)CN1CCC(c2ccc(NC(=O)N3CC(c4cccnc4)C3)cc2)CC1` [Example 235, N-{4-[1-(2-methylpropyl)piperidin-4-yl]phenyl}-3-(pyridin-3-yl)azetidine-1-carboxamide], the IC50 (commonly the concentration that inhibits the measured activity by half) is 649 nM at NAMPT [1], 993 nM with PC3 cells and 0.213 nM at NAMPT [2].
On to `CCC(CC)CN1CCC(c2ccc(NC(=O)N3CC(c4cccnc4)C3)cc2)CC1` [Example 237, N-{4-[1-(2-ethylbutyl)piperidin-4-yl]phenyl}-3-(pyridin-3-yl)azetidine-1-carboxamide], for which the IC50 worked out at 581 nM on NAMPT [1], 346 nM in the experiment with PC3 cells and 0.257 nM at NAMPT [2].
For `CC(C)(C)CN1CCC(c2ccc(NC(=O)N3CC(c4cccnc4)C3)cc2)CC1` [Example 238, N-{4-[1-(2,2-dimethylpropyl)piperidin-4-yl]phenyl}-3-(pyridin-3-yl)azetidine-1-carboxamide], the values for the IC50 on NAMPT [1], in the experiment with PC3 cells and at NAMPT [2] were 4010 nM, 746 nM and 1.41 nM, respectively.
Turning to `CCC(C)CN1CCC(c2ccc(NC(=O)N3CC(c4cccnc4)C3)cc2)CC1` (stereo not drawn) [Example 239, N-{4-[1-(2-methylbutyl)piperidin-4-yl]phenyl}-3-(pyridin-3-yl)azetidine-1-carboxamide], the half-maximal inhibitory concentration (IC50) amounted to 1680 nM on NAMPT [1], 1510 nM with PC3 cells and 0.2 nM on NAMPT [2].
For `CCCN1CCC(c2ccc(NC(=O)N3CC(c4cccnc4)C3)cc2)CC1` [Example 241, N-[4-(1-propylpiperidin-4-yl)phenyl]-3-(pyridin-3-yl)azetidine-1-carboxamide], in that order: 359 nM, 252 nM and 0.255 nM.
Regarding `O=C(Nc1ccc(C2CCN(CC3CCOC3)CC2)cc1)N1CC(c2cccnc2)C1` (stereo not drawn) [Example 243, 3-(pyridin-3-yl)-N-{4-[1-(tetrahydrofuran-3-ylmethyl)piperidin-4-yl]phenyl}azetidine-1-carboxamide], the values for the IC50 on NAMPT [1], with PC3 cells and on NAMPT [2] were 1270 nM, 1310 nM and 0.326 nM, respectively.
The corresponding values for `O=C(Nc1ccc(C2CN(CC3CCCCC3)C2)cc1)N1CC(c2cccnc2)C1` [Example 246, N-{4-[1-(cyclohexylmethyl)azetidin-3-yl]phenyl}-3-(pyridin-3-yl)azetidine-1-carboxamide] are 437 nM, 622 nM and 0.213 nM.
As for `CC(C)(C)CCN1CC(c2ccc(NC(=O)N3CC(c4cccnc4)C3)cc2)C1` [Example 247, N-{4-[1-(3,3-dimethylbutyl)azetidin-3-yl]phenyl}-3-(pyridin-3-yl)azetidine-1-carboxamide], the IC50 was 871 nM at NAMPT [1], 471 nM with PC3 cells and 0.304 nM at NAMPT [2].
As for `O=C(Nc1ccc(C2CN(CC3CC3)C2)cc1)N1CC(c2cccnc2)C1` [Example 248, N-{4-[1-(cyclopropylmethyl)azetidin-3-yl]phenyl}-3-(pyridin-3-yl)azetidine-1-carboxamide], the IC50 at NAMPT [1] was 990 nM; with PC3 cells, 1380 nM; at NAMPT [2] it was 0.228 nM.
For the compound `O=C(Nc1ccc(C2CN(CC3CCCO3)C2)cc1)N1CC(c2cccnc2)C1` (stereo not drawn) [Example 250, 3-(pyridin-3-yl)-N-{4-[1-(tetrahydrofuran-2-ylmethyl)azetidin-3-yl]phenyl}azetidine-1-carboxamide], the IC50 turned out to be 865 nM on NAMPT [1], 664 nM in the experiment on PC3 cells and 0.679 nM at NAMPT [2].
With `CC(C)CN1CC(c2ccc(NC(=O)N3CC(c4cccnc4)C3)cc2)C1` [Example 251, N-{4-[1-(2-methylpropyl)azetidin-3-yl]phenyl}-3-(pyridin-3-yl)azetidine-1-carboxamide], the IC50 stood at 382 nM on NAMPT [1], 212 nM in the experiment with PC3 cells and 0.365 nM at NAMPT [2].
For `CC(C)CCN1CC(c2ccc(NC(=O)N3CC(c4cccnc4)C3)cc2)C1` [Example 252, N-{4-[1-(3-methylbutyl)azetidin-3-yl]phenyl}-3-(pyridin-3-yl)azetidine-1-carboxamide], in that order: 526 nM, 401 nM and 0.296 nM.
The corresponding values for `CCC(CC)CN1CC(c2ccc(NC(=O)N3CC(c4cccnc4)C3)cc2)C1` [Example 253, N-{4-[1-(2-ethylbutyl)azetidin-3-yl]phenyl}-3-(pyridin-3-yl)azetidine-1-carboxamide] are 538 nM, 622 nM and 0.207 nM.
In the case of `CCC(C)CN1CC(c2ccc(NC(=O)N3CC(c4cccnc4)C3)cc2)C1` (stereo not drawn) [Example 255, N-{4-[1-(2-methylbutyl)azetidin-3-yl]phenyl}-3-(pyridin-3-yl)azetidine-1-carboxamide], the IC50 at NAMPT [1] was found to be 271 nM; in the experiment on PC3 cells it was 734 nM; at NAMPT [2] it was 0.173 nM.
For `CCCCC(=O)N1CCC(c2ccc(NC(=O)N3CC(c4cccnc4)C3)cc2)C1` (stereo not drawn) [Example 258, N-[4-(1-pentanoylpyrrolidin-3-yl)phenyl]-3-(pyridin-3-yl)azetidine-1-carboxamide], in that order: 52.4 nM, 68.3 nM and 0.359 nM.
For `CCC(C)CC(=O)N1CCC(c2ccc(NC(=O)N3CC(c4cccnc4)C3)cc2)C1` (stereo not drawn) [Example 259, N-{4-[1-(3-methylpentanoyl)pyrrolidin-3-yl]phenyl}-3-(pyridin-3-yl)azetidine-1-carboxamide], in that order: 54.5 nM, 64.7 nM and 0.452 nM.
In the case of `O=C(CC1C[C@@H]2CC[C@H]1C2)N1CCC(c2ccc(NC(=O)N3CC(c4cccnc4)C3)cc2)C1` (stereo partly drawn) [Example 260, N-(4-{1-[(1S,4R)-bicyclo[2.2.1]hept-2-ylacetyl]pyrrolidin-3-yl}phenyl)-3-(pyridin-3-yl)azetidine-1-carboxamide], the IC50 on NAMPT [1] was determined as 38.4 nM; in the experiment with PC3 cells, 94.9 nM; at NAMPT [2], 0.302 nM.
On to `O=C(CC1CCCC1)N1CCC(c2ccc(NC(=O)N3CC(c4cccnc4)C3)cc2)C1` (stereo not drawn) [Example 261, N-{4-[1-(cyclopentylacetyl)pyrrolidin-3-yl]phenyl}-3-(pyridin-3-yl)azetidine-1-carboxamide], for which the IC50 on NAMPT [1] worked out at 33.5 nM; in the experiment with PC3 cells, 71.3 nM; on NAMPT [2], 0.194 nM.
With `CC1CC1C(=O)N1CCC(c2ccc(NC(=O)N3CC(c4cccnc4)C3)cc2)C1` (stereo not drawn) [Example 262, N-(4-{1-[(2-methylcyclopropyl)carbonyl]pyrrolidin-3-yl}phenyl)-3-(pyridin-3-yl)azetidine-1-carboxamide], the half-maximal inhibitory concentration (IC50) at NAMPT [1] was 60.4 nM; in the experiment with PC3 cells, 51.6 nM; at NAMPT [2], 0.252 nM.
